One may read the IC50 as the concentration needed to halve the response being measured.

Where only a bound is given, the exact number is not on record here.

We go through 23 compounds from patent US20230303552A1, “ARYLSULFONYL DERIVATIVES AND THEIR USE AS MUSCARINIC ACETYLCHOLINE RECEPTOR M5 INHIBITORS” (Vanderbilt University, priority 2020, published 2023).

This assay has as its target T1, human M5 receptors (hM5) (Homo sapiens, UniProt P08912).
T1 construct: expressed in transfected cells
T1 sequence (P08912 1-532): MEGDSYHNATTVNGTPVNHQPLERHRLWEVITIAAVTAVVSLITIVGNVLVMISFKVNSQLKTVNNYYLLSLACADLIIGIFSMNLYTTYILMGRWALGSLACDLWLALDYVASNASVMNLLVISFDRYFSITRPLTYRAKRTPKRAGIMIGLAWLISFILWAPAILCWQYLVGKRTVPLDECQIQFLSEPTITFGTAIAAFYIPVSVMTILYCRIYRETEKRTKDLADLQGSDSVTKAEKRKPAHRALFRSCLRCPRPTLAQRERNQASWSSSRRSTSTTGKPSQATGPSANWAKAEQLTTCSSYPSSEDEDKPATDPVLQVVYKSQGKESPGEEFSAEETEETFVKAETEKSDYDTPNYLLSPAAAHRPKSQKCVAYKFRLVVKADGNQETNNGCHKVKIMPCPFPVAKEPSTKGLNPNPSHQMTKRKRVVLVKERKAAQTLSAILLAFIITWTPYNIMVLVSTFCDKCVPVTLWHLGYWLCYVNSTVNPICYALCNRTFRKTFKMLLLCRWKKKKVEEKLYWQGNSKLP
The assay is described as follows: Cell-based functional calcium mobilization assay of mAChR M5 activity (inhibition of EC80 acetylcholine response) in CHO cells. To be noted: CHO cells stably expressing hM5; for IC50: calcium flux (Fluo-4), EC80 acetylcholine addition; for EC80 MIN: minimum of EC80 acetylcholine response, normalized to maximum acetylcholine response. Put shortly: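 CHO cells stably expressing human M5, loaded with Fluo-4 AM in HBSS/20 mM HEPES/2.5 mM probenecid pH 7.4. Compound added 140 s before acetylcholine EC20, then EC80 added 125 s later. Calcium flux normalized to maximal acetylcholine response; IC50 from ten-point curves in the EC80 window.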
In general terms: A change in cytosolic calcium serves as a functional read-out for many receptors and channels.

Turning to `Cc1nc2ccc(S(=O)(=O)N3CCC(C(=O)Nc4ccc5scnc5c4)CC3)cc2s1` [Compound 47], the IC50 is greater than 10000 nM and the “EC80 MIN” value is listed as 47%.
For `O=C(Nc1ccc2scnc2c1)C1CN(S(=O)(=O)c2ccc3c(c2)CCO3)C1` [Compound 16, N-(benzo[d]thiazol-5-yl)-1-((2,3-dihydrobenzofuran-5-yl)sulfonyl)azetidine-3-carboxamide], the half-maximal inhibitory concentration (IC50) amounted to 1780 nM and the “EC80 MIN” value was determined as 2%.
On to `Cc1ccccc1S(=O)(=O)N1CCC(C(=O)Nc2ccc3scnc3c2)CC1` [Compound 33, N-(benzo[d]thiazol-5-yl)-1-(o-tolylsulfonyl)piperidine-4-carboxamide], for which the IC50 was greater than 10000 nM and the “EC80 MIN” value is 6%.
Turning to `[2H]C1([2H])Oc2ccc(S(=O)(=O)N3C[C@@H](C)[C@@H](C(=O)Nc4ccc5scnc5c4)C3)cc2C1([2H])[2H]` [Compound 148, (3R,4S)-N-(benzo[d]thiazol-5-yl)-1-((2,3-dihydrobenzofuran-5-yl-2,2,3,3-d4)sulfonyl)-4-methylpyrrolidine-3-carboxamide], the 50% inhibitory concentration (IC50) was determined as 30 nM and the “EC80 MIN” value came out at 3%.
The matching figures for `Cc1cc(S(=O)(=O)N2CCC(C(=O)Nc3ccc4scnc4c3)CC2)cnc1Cl` [Compound 35, N-(benzo[d]thiazol-5-yl)-1-((6-chloro-5-methylpyridin-3-yl)sulfonyl)piperidine-4-carboxamide]: 83 nM and 3%.
Consider `CC1COc2ccc(S(=O)(=O)N3CC[C@@H](C(=O)Nc4ccc5scnc5c4)C3)cc21` (mixture of isomers) [Compound 132, (3R)-N-(benzo[d]thiazol-5-yl)-1-((3-methyl-2,3-dihydrobenzofuran-5-yl)sulfonyl)pyrrolidine-3-carboxainide], for which the IC50 amounted to 42 nM and the “EC80 MIN” value amounted to 2%.
`O=C(Nc1ccc2scnc2c1)C1CCN(S(=O)(=O)c2ccc(Br)c3c2OCC3)CC1` [Compound 58, N-(benzo[d]thiazol-5-yl)-1-((4-bromo-2,3-dihydrobenzofuran-7-yl)sulfonyl)piperidine-4-carboxamide]: the half-maximal inhibitory concentration (IC50) is greater than 10000 nM and the “EC80 MIN” value is recorded as 34%.
Regarding `COc1ccc(S(=O)(=O)N2CCC(C(=O)Nc3ccc4scnc4c3)CC2)c(C)c1` [Compound 62, N-(benzo[d]thiazol-5-yl)-1-((4-methoxy-2-methylphenyl)sulfonyl)pipe ridine-4-carboxamide], the IC50 was greater than 10000 nM and the “EC80 MIN” value was found to be 22%.
Turning to `C[C@H]1CN(S(=O)(=O)c2ccc3c(c2)CCO3)C[C@@H]1C(=O)Nc1ccc2scnc2c1` [Compound 78], the 50% inhibitory concentration (IC50) was determined as 76 nM and the “EC80 MIN” value is on record as 3%.
Turning to `O=C(Nc1ccc2scnc2c1)[C@H]1CCN(S(=O)(=O)c2ccc3ncsc3c2)C[C@H]1F` (racemic) [Compound 70, cis-(rac)-N-(benzo[d]|thiazol-5-yl-1)-1-(benzo[d]thiazol-6-ylsulfonyl)-3-fluoropiperidine-4-carboxamide], the IC50 is greater than 10000 nM and the “EC80 MIN” value came to 63%.
The matching figures for `O=C(Nc1ccc2scnc2c1)C1(F)CCN(S(=O)(=O)c2ccc3ncsc3c2)CC1` [Compound 108]: greater than 10000 nM and 22%.
For the compound `Cc1ncc(S(=O)(=O)N2CC[C@H](C(=O)Nc3ccc4scnc4c3)[C@@H](F)C2)s1` (racemic) [Compound 160, trans-(rac)-N-(benzo[d]thiazol-5-yl)-3-fluoro-1-((2-methylthiazol-5-yl)sulfonyl)piperidine-4-carboxamide], the IC50 is 13 nM and the “EC80 MIN” value amounted to 2%.
Regarding `O=C(Nc1ccc2scnc2c1)C1CCN(S(=O)(=O)c2ccc3c(c2)OC(F)(F)O3)CC1` [Compound 29, N-(benzo[d]thiazol-5-yl)-1-((2.2-difluorobenzo[d][1,3]dioxol-5-yl)sulfonyl)piperidine-4-carboxamide], the IC50 was greater than 10000 nM and the “EC80 MIN” value was 60%.
For the compound `O=C(Nc1ccc2scnc2c1)C1CCN(S(=O)(=O)c2ccc3c(c2)CCO3)CC1` [Compound 2, N-(benzo[d]thiazol-5-yl)-1-((2,3-dihydrobenzofuran-5-yl)sulfonyl)piperidine-4-carboxamide], the IC50 amounted to 72 nM and the “EC80 MIN” value was 2%.
In the case of `O=C(Nc1ccc2scnc2c1)C1(F)CCN(S(=O)(=O)c2ccc3c(c2)CCO3)CC1` [Compound 113, N-(benzo[d]thiazol-5-yl)-1-((2.3-dihydrobenzofuran-5-yl)sulfonyl)-4-fluoropiperidine-4-carboxamide], the IC50 is 712 nM and the “EC80 MIN” value is 10%.
`C[C@@H]1C[C@@H](C(=O)Nc2ccc3scnc3c2)CCN1S(=O)(=O)c1ccc(Cl)nc1` (racemic) [Compound 120, trans-(rac)-N-(benzo[d]thiazol-5-yl)-1-((6-chloropyridin-3-yl)sulfonyl)-2-methylpiperidine-4-carboxamide]: the IC50 stood at 275 nM and the “EC80 MIN” value is 3%.
On to `O=C(Nc1ccc2scnc2c1)C1CCN(S(=O)(=O)c2ccc(Cl)cc2)CC1` [Compound 66, N-(benzo[d]thiazol-5-yl)-1-((4-chlorophenyl)sulfonyl)piper idine-4-carboxamide], for which the 50% inhibitory concentration (IC50) was greater than 10000 nM and the “EC80 MIN” value was determined as 16%.
With `Cn1cnc(S(=O)(=O)N2CCC(C(=O)Nc3ccc4scnc4c3)CC2)c1` [Compound 20, N-(benzo[d]thiazol-5-yl)-1-((1-methyl-1H-imidazol-4-yl)sulfonyl)piperidine-4-carboxamide], the IC50 is greater than 10000 nM and the “EC80 MIN” value is 49%.
On to `CC1(C(=O)Nc2ccc3scnc3c2)CN(S(=O)(=O)c2ccc3c(c2)CCO3)C1` [Compound 22, N-(benzo[d]thiazol-5-yl)-1-((2,3-dihydrobenzofuran-5-yl)sulfonyl)-3-methylazetidine-3-carboxamide], for which the IC50 was greater than 10000 nM and the “EC80 MIN” value was found to be 43%.
The matching figures for `Cn1cc(S(=O)(=O)N2CCC(C(=O)Nc3ccc4scnc4c3)CC2)c(C(F)(F)F)n1` [Compound 157, N-(benzo[d]thiazol-5-yl)-1-((1-methyl-3-(trifluoromethyl)-1H-pyrazo1-4-yl)sulfonyl)piperidine-4-carboxamide]: 2340 nM and 4%.
The matching figures for `O=C(Nc1ccc2cccnc2c1)C1CCN(S(=O)(=O)c2ccc3c(c2)CCO3)CC1` [Compound 135, 1-((2,3-dihydrobenzofuran-5-yl)sulfonyl)-N-(quinolin-7-yl)pipcridinc-4-carboxamide]: 1800 nM and 3%.
With `O=C(Nc1ccc2scnc2c1)[C@H]1CCN(S(=O)(=O)c2cccnc2)C[C@H]1F` (racemic) [Compound 72, cis-(rac)-N-(benzo[d]thiazol-5-yl)-3-fluoro-1-(pyridin-3-ylsulfonyl)piperidine-4-carboxamide], the IC50 was greater than 10000 nM and the “EC80 MIN” value is reported as 13%.
For the compound `CC1(C)CN(S(=O)(=O)c2ccc(Cl)nc2)CCC1C(=O)Nc1ccc2scnc2c1` (stereo not shown) [Compound 142], the IC50 was determined as 4440 nM and the “EC80 MIN” value is 3%.
